According to patent US20210047304A1, “Bromodomain Inhibitors” (AbbVie Inc., priority 2016, published 2021):

Molecular target: BRD4 (BDI_K57-E168) (Homo sapiens, UniProt O60885)
Assay: TR-FRET bromodomain binding assay, BRD4 BDI

Cc1cc(F)cc(C)c1Oc1ccc(C(C)(C)O)cc1-c1cn(C)c(=O)cc1O[C@H]1CC[C@H](N2C(=O)c3ccccc3C2=O)CC1 [Example 43, 2-[trans-4-({5-[2-(4-fluoro-2,6-dimethylphenoxy)-5-(2-hydroxypropan-2-yl)phenyl]-1-methyl-2-oxo-1,2-dihydropyridin-4-yl}oxy)cyclohexyl]-1H-isoindole-1,3(2H)-dione]
Ki: > 13000 nM

Cc1cc(F)cc(C)c1Oc1ccc(C(C)(C)O)cc1-c1cn(C)c(=O)cc1O[C@H]1CC[C@H](N2C(=O)CCC2=O)CC1 [Example 44, 1-[trans-4-({5-[2-(4-fluoro-2,6-dimethylphenoxy)-5-(2-hydroxypropan-2-yl)phenyl]-1-methyl-2-oxo-1,2-dihydropyridin-4-yl}oxy)cyclohexyl]pyrrolidine-2,5-dione]
Ki: 3380 nM

Cc1cc(F)cc(C)c1Oc1ccc(C(C)(C)O)cc1-c1cn(C)c(=O)cc1O[C@H]1CC[C@H](NC(=O)c2ccccc2C(=O)O)CC1 [Example 45, 2-{[trans-4-({5-[2-(4-fluoro-2,6-dimethylphenoxy)-5-(2-hydroxypropan-2-yl)phenyl]-1-methyl-2-oxo-1,2-dihydropyridin-4-yl}oxy)cyclohexyl]carbamoyl}benzoic acid]
Ki: 4170 nM

Cc1cc(F)cc(C)c1Oc1ccc(C(C)(C)O)cc1-c1cn(C)c(=O)cc1O[C@H]1CC[C@H](NS(C)(=O)=O)CC1 [Example 46, N-[trans-4-({5-[2-(4-fluoro-2,6-dimethylphenoxy)-5-(2-hydroxypropan-2-yl)phenyl]-1-methyl-2-oxo-1,2-dihydropyridin-4-yl}oxy)cyclohexyl]methanesulfonamide]
Ki: 5450 nM

Cc1cc(F)cc(C)c1Oc1ccc(C(C)(C)O)cc1-c1cn(C)c(=O)cc1O[C@H]1CC[C@H](NC(=O)C(C)(C)CCO)CC1 [Example 47, N-[trans-4-({5-[2-(4-fluoro-2,6-dimethylphenoxy)-5-(2-hydroxypropan-2-yl)phenyl]-1-methyl-2-oxo-1,2-dihydropyridin-4-yl}oxy)cyclohexyl]-4-hydroxy-2,2-dimethylbutanamide]
Ki: 4020 nM

Cc1cc(F)cc(C)c1Oc1ccc(C(C)(C)O)cc1-c1cn(C)c(=O)cc1O[C@H]1CC[C@H](N2CCC(C)(C)C2=O)CC1 [Example 48, 4-{[trans-4-(3,3-dimethyl-2-oxopyrrolidin-1-yl)cyclohexyl]oxy}-5-[2-(4-fluoro-2,6-dimethylphenoxy)-5-(2-hydroxypropan-2-yl)phenyl]-1-methylpyridin-2(1H)-one]
Ki: 1790 nM

Cc1cc(F)cc(C)c1Oc1ccc(C(C)(C)O)cc1-c1cn(C)c(=O)cc1O[C@H]1CC[C@H](NC(=O)CCO)CC1 [Example 49, N-[trans-4-({5-[2-(4-fluoro-2,6-dimethylphenoxy)-5-(2-hydroxypropan-2-yl)phenyl]-1-methyl-2-oxo-1,2-dihydropyridin-4-yl}oxy)cyclohexyl]-3-hydroxypropanamide]
Ki: 2530 nM

Cc1cc(F)cc(C)c1Oc1ccc(C(C)(C)O)cc1-c1cn(C)c(=O)cc1O[C@H]1CC[C@H](NC(=O)C2CC2)CC1 [Example 50, N-[trans-4-({5-[2-(4-fluoro-2,6-dimethylphenoxy)-5-(2-hydroxypropan-2-yl)phenyl]-1-methyl-2-oxo-1,2-dihydropyridin-4-yl}oxy)cyclohexyl]cyclopropanecarboxamide]
Ki: 2830 nM

Cc1cc(F)cc(C)c1Oc1ccc(C(C)(C)O)cc1-c1cn(C)c(=O)cc1O[C@H]1CC[C@H](NC(=O)C2(C)CC2)CC1 [Example 51, N-[trans-4-({5-[2-(4-fluoro-2,6-dimethylphenoxy)-5-(2-hydroxypropan-2-yl)phenyl]-1-methyl-2-oxo-1,2-dihydropyridin-4-yl}oxy)cyclohexyl]-1-methylcyclopropane-1-carboxamide]
Ki: > 13000 nM

Cc1cc(F)cc(C)c1Oc1ccc(C(C)(C)O)cc1-c1cn(C)c(=O)cc1O[C@H]1CC[C@H](N2CCCS2(=O)=O)CC1 [Example 52, 2-[trans-4-({5-[2-(4-fluoro-2,6-dimethylphenoxy)-5-(2-hydroxypropan-2-yl)phenyl]-1-methyl-2-oxo-1,2-dihydropyridin-4-yl}oxy)cyclohexyl]-1lambda^6,2-thiazolidine-1,1-dione]
Ki: 3480 nM

COCC(=O)N[C@H]1CC[C@H](Oc2cc(=O)n(C)cc2-c2cc(C(C)(C)O)ccc2Oc2c(C)cc(F)cc2C)CC1 [Example 53, N-[trans-4-({5-[2-(4-fluoro-2,6-dimethylphenoxy)-5-(2-hydroxypropan-2-yl)phenyl]-1-methyl-2-oxo-1,2-dihydropyridin-4-yl}oxy)cyclohexyl]-2-methoxyacetamide]
Ki: 1440 nM

CC(=O)N(CCO)[C@H]1CC[C@H](Oc2cc(=O)n(C)cc2-c2cc(C(C)(C)O)ccc2Oc2c(C)cc(F)cc2C)CC1 [Example 54, N-[trans-4-({5-[2-(4-fluoro-2,6-dimethylphenoxy)-5-(2-hydroxypropan-2-yl)phenyl]-1-methyl-2-oxo-1,2-dihydropyridin-4-yl}oxy)cyclohexyl]-N-(2-hydroxyethyl)acetamide]
Ki: 2260 nM

CCOC(=O)CC(=O)N[C@H]1CC[C@H](Oc2cc(=O)n(C)cc2-c2cc(C(C)(C)O)ccc2Oc2c(C)cc(F)cc2C)CC1 [Example 55, ethyl 3-{[trans-4-({5-[2-(4-fluoro-2,6-dimethylphenoxy)-5-(2-hydroxypropan-2-yl)phenyl]-1-methyl-2-oxo-1,2-dihydropyridin-4-yl}oxy)cyclohexyl]amino}-3-oxopropanoate]
Ki: 1870 nM

CC(=O)C(=O)N[C@H]1CC[C@H](Oc2cc(=O)n(C)cc2-c2cc(C(C)(C)O)ccc2Oc2c(C)cc(F)cc2C)CC1 [Example 56, N-[trans-4-({5-[2-(4-fluoro-2,6-dimethylphenoxy)-5-(2-hydroxypropan-2-yl)phenyl]-1-methyl-2-oxo-1,2-dihydropyridin-4-yl}oxy)cyclohexyl]-2-oxopropanamide]
Ki: 2430 nM

Cc1cc(F)cc(C)c1Oc1ccc(C(C)(C)O)cc1-c1cn(C)c(=O)cc1O[C@H]1CC[C@H](NC(=O)C(C)(C)C)CC1 [Example 57, N-[trans-4-({5-[2-(4-fluoro-2,6-dimethylphenoxy)-5-(2-hydroxypropan-2-yl)phenyl]-1-methyl-2-oxo-1,2-dihydropyridin-4-yl}oxy)cyclohexyl]-2,2-dimethylpropanamide]
Ki: 1660 nM

Cc1cc(F)cc(C)c1Oc1ccc(C(C)(C)O)cc1-c1cn(C)c(=O)cc1O[C@H]1CC[C@H](N(C)C(=O)C2(C)CC2)CC1 [Example 58, N-[trans-4-({5-[2-(4-fluoro-2,6-dimethylphenoxy)-5-(2-hydroxypropan-2-yl)phenyl]-1-methyl-2-oxo-1,2-dihydropyridin-4-yl}oxy)cyclohexyl]-N,1-dimethylcyclopropane-1-carboxamide]
Ki: 783 nM

Cc1cc(F)cc(C)c1Oc1ccc(C(C)(C)O)cc1-c1cn(C)c(=O)cc1O[C@H]1CC[C@H](N(C)C(=O)C(C)(C)C)CC1 [Example 59, N-[trans-4-({5-[2-(4-fluoro-2,6-dimethylphenoxy)-5-(2-hydroxypropan-2-yl)phenyl]-1-methyl-2-oxo-1,2-dihydropyridin-4-yl}oxy)cyclohexyl]-N,2,2-trimethylpropanamide]
Ki: 6550 nM

Cc1cc(F)cc(C)c1Oc1ncc(C(C)(C)O)cc1-c1cn(C)c(=O)cc1O[C@H]1CC[C@H](N2CCCC2=O)CC1 [Example 60, 2′-(4-fluoro-2,6-dimethylphenoxy)-5′-(2-hydroxypropan-2-yl)-1-methyl-4-{[trans-4-(2-oxopyrrolidin-1-yl)cyclohexyl]oxy}[3,3′-bipyridin]-6(1H)-one]
Ki: 4660 nM

Cc1cc(F)cc(C)c1Oc1ccc(C(C)(C)O)cc1-c1cn(C)c(=O)cc1O[C@H]1CC[C@H](C(=O)O)CC1 [Example 61, trans-4-({5-[2-(4-fluoro-2,6-dimethylphenoxy)-5-(2-hydroxypropan-2-yl)phenyl]-1-methyl-2-oxo-1,2-dihydropyridin-4-yl}oxy)cyclohexane-1-carboxylic acid]
Ki: 12200 nM

Cc1cc(F)cc(C)c1Oc1ccc(C(C)(C)O)cc1-c1cn(C)c(=O)cc1O[C@H]1CC[C@H](C(=O)N2CCCC2)CC1 [Example 62, 5-[2-(4-fluoro-2,6-dimethylphenoxy)-5-(2-hydroxypropan-2-yl)phenyl]-1-methyl-4-{[trans-4-(pyrrolidine-1-carbonyl)cyclohexyl]oxy}pyridin-2(1H)-one]
Ki: 8370 nM

CCNC(=O)[C@H]1CC[C@H](Oc2cc(=O)n(C)cc2-c2cc(C(C)(C)O)ccc2Oc2c(C)cc(F)cc2C)CC1 [Example 63, trans-N-ethyl-4-({5-[2-(4-fluoro-2,6-dimethylphenoxy)-5-(2-hydroxypropan-2-yl)phenyl]-1-methyl-2-oxo-1,2-dihydropyridin-4-yl}oxy)cyclohexane-1-carboxamide]
Ki: 5960 nM

COCCN(C(=O)C1(C)CC1)[C@H]1CC[C@H](Oc2cc(=O)n(C)cc2-c2cc(C(C)(C)O)ccc2Oc2c(C)cc(F)cc2C)CC1 [Example 64, N-[trans-4-({5-[2-(4-fluoro-2,6-dimethylphenoxy)-5-(2-hydroxypropan-2-yl)phenyl]-1-methyl-2-oxo-1,2-dihydropyridin-4-yl}oxy)cyclohexyl]-N-(2-methoxyethyl)-1-methylcyclopropane-1-carboxamide]
Ki: 1950 nM

COCCCN(C(=O)C1(C)CC1)[C@H]1CC[C@H](Oc2cc(=O)n(C)cc2-c2cc(C(C)(C)O)ccc2Oc2c(C)cc(F)cc2C)CC1 [Example 65, N-[trans-4-({5-[2-(4-fluoro-2,6-dimethylphenoxy)-5-(2-hydroxypropan-2-yl)phenyl]-1-methyl-2-oxo-1,2-dihydropyridin-4-yl}oxy)cyclohexyl]-N-(3-methoxypropyl)-1-methylcyclopropane-1-carboxamide]
Ki: 1860 nM

CCOC(=O)CN(C(=O)C1(C)CC1)[C@H]1CC[C@H](Oc2cc(=O)n(C)cc2-c2cc(C(C)(C)O)ccc2Oc2c(C)cc(F)cc2C)CC1 [Example 66, ethyl N-[trans-4-({5-[2-(4-fluoro-2,6-dimethylphenoxy)-5-(2-hydroxypropan-2-yl)phenyl]-1-methyl-2-oxo-1,2-dihydropyridin-4-yl}oxy)cyclohexyl]-N-(1-methylcyclopropane-1-carbonyl)glycinate]
Ki: 1320 nM
